# Columns and labels:
# primary human myoblasts = assay: Primary human myoblasts plated in plasma from treated mice; format: cell-based; settings: plasma from fluoxetine-treated mice
# [1] = system: extensor digitorum longus (edl) fibers; assay: Tension of isolated muscle fibers of mdx mice; format: in vivo, mouse; settings: fluoxetine treated mdx mice
# Experimental: Small bundles of two to five fibers were manually isolated from the muscles as previously described. Chemical skinning was carried out using Triton X-100. Skinned fibers were mounted in the Displacement Measuring System KD 2300 (model 0.5 SU, Kaman Instrumentation, Colorado Springs, Colo., USA). To perform force measurements, skinned fiber preparations were incubated for 1 h in relaxing solution (pCa 9.0, low calcium content) containing 1% Triton X-100 (v/v) to solubilize the sarcolemma and the sarcoplasmic reticulum membranes, and were subsequently washed several times in relaxing solution without detergent. Fibres were adjusted to slack length and then stretched progressively until the tension developed became maximal. Isometric tension was recorded continuously using a chart recorder (model 1200, Linear, Reno, Nev., USA). The tension obtained was normalized to fibre cross-sectional area.
# This was confirmed on soleus muscle (data not shown).
structure (smiles),measurement,setting,value
CNCCC(Oc1ccc(C(F)(F)F)cc1)c1ccccc1 (stereo not drawn) [fluoxetine],Differentiation 4 days post-plating vs placebo plasma,primary human myoblasts,faster differentiation
same,Self-renewal of the cells 14 days post-plating vs placebo plasma,primary human myoblasts,higher self-renewal
same,Force increase of isolated single fibers of extensor digitorum longus (edl),[1],45%
